Patent publication US20100035941A1, “METHODS FOR INCREASING BLOOD FLOW AND/OR PROMOTING TISSUE REGENERATION” (priority 2006, published 2010)
Several values for one entry are separate records, joined by “and”; a condition that tells them apart may be missing. Identical values can stand only once. Like-named read-outs stand apart in the source and are kept apart here.

What was measured:
progenitor cells = details: AMD3100 5 mg/Kg s.c. plus MIP-1α 5 μg I.V., 11 hours after rhu G-CSF or saline, 1 hour prior to assessing the blood
Method: Groups of mice were randomized to receive control diluent (saline) or G-CSF at a dose of 2.5 μg per mouse, twice a day, for two days via s.c. injection. […] One hour later, the mice were sacrificed and the number of progenitor cells per mL of blood were measured.

CFU-GM progenitor cells = details: donors' mean, s.c. 80 μg/kg
Method: (§1) All progenitor cell results are based on the scoring of 3 culture plates per assay per point.
(§2) For the progenitor cell numbers and cycling status, the numbers of CFU-GM, BFU-E and CFU-GEMM in methylcellulose cultures by stimulation of the cells with 1 Unit (U)/ml recombinant human (rhu) erythropoietin, 100 U/ml rhu granulocyte-macrophage colony stimulating factor (GM-CSF), 100 U/ml rhu interleukin-3 (IL-3) and 50 ng/ml rhu steel factor (SLF=stem cell factor (SCF)). The CFU-GM were also evaluated in agar cultures stimulated with 100 U/ml rhu GM-CSF and 50 ng/ml rhu SLF. For both types of assays, colonies were scored after 14 day incubation in a humidified atmosphere with 5% CO2 and lowered (5%) O2 tension. Cell cycling status of progenitors was measured using a high specific activity tritiated thymidine kill technique as previously described (Broxmeyer, H. E., et al., Exp. Hematol. (1989) 17:455-459).

[1] = tested on: CFU-GM, BFU-E and CFU-GEMM progenitor cells; details: s.c. 80 μg/kg; for mean fold change vs T=0, methylcellulose culture BFU-E, MEAN / mean fold change vs T=0, methylcellulose culture CFU-GEMM, MEAN / mean fold change vs T=0, methylcellulose culture CFU-GM, MEAN / methylcellulose culture BFU-E, % CHG / methylcellulose culture CFU-GEMM, % CHG / methylcellulose culture CFU-GM, % CHG: 5 donors
Method: as §1, §2

ischemic hind limb = experiment: Tissue regeneration in diabetic animal ischemic model: limb blood flow restoration, LASER Doppler; format: in vivo, male nude Hfh11 mice; details: diabetic mice
Method: Three to four weeks after injection of STZ the left hind limb was made ischemic by ligation of the iliac artery and removal of a 0.5-1 cm segment distal to the ligation.
One group of additional mice (n=11) was injected intramuscularly into the ischemic hindlimb with human non-diabetic-derived unmobilized CD34+ (unCD34+) peripheral blood mononuclear cells (PBMCs), two to four hours after surgery. […] Untreated mice served as controls (n=10).
Limb blood flow restoration was analyzed immediately before and after surgery and at various times thereafter in the entire limb distal to the ligation using LASER Doppler analysis.

bone marrow stem cells = details: rats; coronary ligation; injected within 4 to 6 hours, with or without rhG-CSF
Method: Adult rats are anesthetized and a thoracotomy is performed. The descending branch of the left coronary artery is ligated and not reperfused. […] Control rats are not treated with the reagents. The animals are monitored at one-week intervals by echocardiography and MRI. The experiment is terminated at 2, 6 to 12 weeks post-surgery. On the day of sacrifice, the hemodynamic functions are analyzed for left ventricle-end diastolic pressure, left ventricle-developed pressure and the rate of rise and fall of left ventricle pressure. The heart is then arrested in diastole and perfused via the abdominal aorta to flush residual blood from the vascular network of the myocardium. This is followed by perfusion of the heart with 10% formalin. Several slices are made through the fixed heart and these are embedded in paraffin and sections. The sections are stained and analyzed by light microscopy to determine the size of the infarct in the treated and control animals. Tissue sections from hearts taken at 2 weeks after surgery are stained with antibodies specific for immature, developing myocyte and blood vessel proteins and analyzed by confocal microscopy. The immunohistochemical analysis involves the identification of transcription factors and surface markers expressed in early stages of myocyte development.

WBC = details: Phase 1 study; single dose of 80 μg/kg; cited from earlier work
white blood cells = details: single s.c. 80 μg/kg
Method: (§3) Five healthy human volunteers having initial white blood cell counts of 4,500-7,500 cells/mm^3 were used in the study. […] Blood samples were obtained via catheter prior to the dose, and at various times up to 24 hours after dosing.
(§4) The blood samples were evaluated for total white blood cells, CD34 positive progenitor cells (via FACS analysis) as a percentage of total white blood cells, as well as the absolute numbers per mL and cycling status of granulocyte macrophage (CFU-GM), erythroid (BFU-E), and multipotential (CFU-GEMM) progenitor cells.

[2] = tested on: CD34 positive progenitor cells; details: human volunteers; single s.c. 80 μg/kg
Method: as §3, §4

[3] = tested on: granulocyte macrophage (CFU-GM), erythroid (BFU-E), and multipotential (CFU-GEMM) progenitor cells; details: mice; for Absolute Number Progenitors Per ML Blood, Methylcellulose Culture, BFU-E / Absolute Number Progenitors Per ML Blood, Methylcellulose Culture, CFU-GEMM / Absolute Number Progenitors Per ML Blood, Methylcellulose Culture, CFU-GM: 1 hour post administration; for Absolute Progenitors Per ML Blood, Methylcellulose Culture, BFU-E / Absolute Progenitors Per ML Blood, Methylcellulose Culture, CFU-GEMM / Absolute Progenitors Per ML Blood, Methylcellulose Culture, CFU-GM: single s.c. injection of 5 mg/Kg
Method: Progenitors were stimulated to form colonies in vitro with the combination of 1U/ml rhu Epo, 50 ng/ml rhu SLF, 5% Vol/Vol pokeweed mitogen mouse spleen cell conditioned medium (PWMSCM), and 0.1 mM hemin. Plates were scored 7 days after incubation.

[4] = ischemic hind limb, 5 mg/kg intraperitoneally on days 0 and 2
[5] = single s.c. injection 2.5 mg/kg

## c1cc(CN2CCCNCCNCCCNCC2)ccc1CN1CCCNCCNCCCNCC1 [AMD3100, 1,1′-[1,4-phenylene-bis(methylene)]-bis-1,4,8,11-tetraazacyclotetradecane]
Progenitor cells
  mobilization of progenitor cells in combination with mu MIP-1α: additive to greater than additive
CFU-GM progenitor cells; T = 1 hour
  agar culture CFU-GM, % CHG: 180.8%
  mean fold change vs T=0, agar culture CFU-GM, MEAN: 2.81
CFU-GM progenitor cells; T = 3 hours
  agar culture CFU-GM, % CHG: 754.1%
  mean fold change vs T=0, agar culture CFU-GM, MEAN: 8.54
CFU-GM progenitor cells; T = 6 hours
  agar culture CFU-GM, % CHG: 1692.8%
  mean fold change vs T=0, agar culture CFU-GM, MEAN: 17.93
CFU-GM progenitor cells; T = 9 hours
  agar culture CFU-GM, % CHG: 924.9%
  mean fold change vs T=0, agar culture CFU-GM, MEAN: 10.25
CFU-GM progenitor cells; T = 24 hours
  agar culture CFU-GM, % CHG: 108.3%
  mean fold change vs T=0, agar culture CFU-GM, MEAN: 2.08
[1]; T = 1 hour
  mean fold change vs T=0, methylcellulose culture BFU-E, MEAN: 1.99
  mean fold change vs T=0, methylcellulose culture CFU-GEMM, MEAN: 2.32
  mean fold change vs T=0, methylcellulose culture CFU-GM, MEAN: 4.77
  methylcellulose culture BFU-E, % CHG: 98.9%
  methylcellulose culture CFU-GEMM, % CHG: 131.8%
  methylcellulose culture CFU-GM, % CHG: 376.7%
[1]; T = 3 hours
  mean fold change vs T=0, methylcellulose culture BFU-E, MEAN: 3.21
  mean fold change vs T=0, methylcellulose culture CFU-GEMM, MEAN: 4.33
  mean fold change vs T=0, methylcellulose culture CFU-GM, MEAN: 13.66
  methylcellulose culture BFU-E, % CHG: 221.3%
  methylcellulose culture CFU-GEMM, % CHG: 332.5%
  methylcellulose culture CFU-GM, % CHG: 1266.5%
[1]; T = 6 hours
  mean fold change vs T=0, methylcellulose culture BFU-E, MEAN: 6.01
  mean fold change vs T=0, methylcellulose culture CFU-GEMM, MEAN: 10.07
  mean fold change vs T=0, methylcellulose culture CFU-GM, MEAN: 21.71
  methylcellulose culture BFU-E, % CHG: 500.5%
  methylcellulose culture CFU-GEMM, % CHG: 907.2%
  methylcellulose culture CFU-GM, % CHG: 2070.6%
[1]; T = 9 hours
  mean fold change vs T=0, methylcellulose culture BFU-E, MEAN: 4.34
  mean fold change vs T=0, methylcellulose culture CFU-GEMM, MEAN: 5.25
  mean fold change vs T=0, methylcellulose culture CFU-GM, MEAN: 10.47
  methylcellulose culture BFU-E, % CHG: 334.4%
  methylcellulose culture CFU-GEMM, % CHG: 425.4%
  methylcellulose culture CFU-GM, % CHG: 947.3%
[1]; T = 24 hours
  mean fold change vs T=0, methylcellulose culture BFU-E, MEAN: 1.26
  mean fold change vs T=0, methylcellulose culture CFU-GEMM, MEAN: 1.53
  mean fold change vs T=0, methylcellulose culture CFU-GM, MEAN: 1.56
  methylcellulose culture BFU-E, % CHG: 26.3%
  methylcellulose culture CFU-GEMM, % CHG: 53.2%
  methylcellulose culture CFU-GM, % CHG: 55.5%
[1]; all five human donors
  time after injection of maximal fold increases in circulating levels of progenitor cells: 6 h
Ischemic hind limb; [4]
  time at which drug induced improvement was observed: two
  time by which blood flow had reached its maximum: seven
Ischemic hind limb; ischemic hind limb, 5 mg/kg intraperitoneally on the day of and two days after surgery, mean flow d8-d24
  blood flow maintained, mean % of the initial flow (plateau): 74.6±2.8%
Ischemic hind limb; ischemic limb, systemic (intraperitoneal) treatment
  overall effect of systemic therapy on blood flow restoration: accelerated blood flow restoration, but did not increase it
Bone marrow stem cells
  expected effect on ischemic myocardium: will lead to regeneration of the dead myocardium
WBC
  WBC count: 17,000 /μl
White blood cells; human volunteers
  time post-administration at which elevation of the white blood cell count maximized: 6 h
White blood cells; 2 Hr, volunteers P1-P5
  mobilization of white blood cells in individual volunteers: 12.4 × 10^3 WBC's and 21.4 × 10^3 WBC's and 13.5 × 10^3 WBC's
[2]
  time post-administration at which elevation of CD34 positive progenitor cells maximized: 6 h
[3]; Time 2′
  Fold Change Compared to Time 0, Progenitors, Methylcellulose Culture, BFU-E: 2.07
  Fold Change Compared to Time 0, Progenitors, Methylcellulose Culture, CFU-GEMM: 1.85
  Fold Change Compared to Time 0, Progenitors, Methylcellulose Culture, GM: 2.86
[3]; Time 15″
  Fold Change Compared to Time 0, Progenitors, Methylcellulose Culture, BFU-E: 2.72
  Fold Change Compared to Time 0, Progenitors, Methylcellulose Culture, CFU-GEMM: 3.51
  Fold Change Compared to Time 0, Progenitors, Methylcellulose Culture, GM: 2.73
[3]; Time 30″
  Fold Change Compared to Time 0, Progenitors, Methylcellulose Culture, BFU-E: 4.24
  Fold Change Compared to Time 0, Progenitors, Methylcellulose Culture, CFU-GEMM: 4.41
  Fold Change Compared to Time 0, Progenitors, Methylcellulose Culture, GM: 6.23
[3]; single s.c. injection 1 mg/kg
  Absolute Number Progenitors Per ML Blood, Methylcellulose Culture, BFU-E: 62 Per ML Blood
  Absolute Number Progenitors Per ML Blood, Methylcellulose Culture, CFU-GEMM: 27.1 Per ML Blood
  Absolute Number Progenitors Per ML Blood, Methylcellulose Culture, CFU-GM: 424 Per ML Blood
[3]; [5]
  Absolute Number Progenitors Per ML Blood, Methylcellulose Culture, BFU-E: 98.9 Per ML Blood
  Absolute Number Progenitors Per ML Blood, Methylcellulose Culture, CFU-GEMM: 70.6 Per ML Blood
  Absolute Number Progenitors Per ML Blood, Methylcellulose Culture, CFU-GM: 687.6 Per ML Blood
[3]; single s.c. injection 5 mg/kg
  Absolute Number Progenitors Per ML Blood, Methylcellulose Culture, BFU-E: 92.8 Per ML Blood
  Absolute Number Progenitors Per ML Blood, Methylcellulose Culture, CFU-GEMM: 69.5 Per ML Blood
  Absolute Number Progenitors Per ML Blood, Methylcellulose Culture, CFU-GM: 608.4 Per ML Blood
[3]; single s.c. injection 10 mg/kg
  Absolute Number Progenitors Per ML Blood, Methylcellulose Culture, BFU-E: 120.5 Per ML Blood
  Absolute Number Progenitors Per ML Blood, Methylcellulose Culture, CFU-GEMM: 79.8 Per ML Blood
  Absolute Number Progenitors Per ML Blood, Methylcellulose Culture, CFU-GM: 825.6 Per ML Blood
[3]; 15″
  Absolute Progenitors Per ML Blood, Methylcellulose Culture, BFU-E: 134.5 Per ML Blood
  Absolute Progenitors Per ML Blood, Methylcellulose Culture, CFU-GEMM: 90.4 Per ML Blood
  Absolute Progenitors Per ML Blood, Methylcellulose Culture, CFU-GM: 791.6 Per ML Blood
[3]; 30″
  Absolute Progenitors Per ML Blood, Methylcellulose Culture, BFU-E: 209.3 Per ML Blood
  Absolute Progenitors Per ML Blood, Methylcellulose Culture, CFU-GEMM: 113.5 Per ML Blood
  Absolute Progenitors Per ML Blood, Methylcellulose Culture, CFU-GM: 1805.5 Per ML Blood
[3]; 120″
  Absolute Progenitors Per ML Blood, Methylcellulose Culture, BFU-E: 102.3 Per ML Blood
  Absolute Progenitors Per ML Blood, Methylcellulose Culture, CFU-GEMM: 47.6 Per ML Blood
  Absolute Progenitors Per ML Blood, Methylcellulose Culture, CFU-GM: 528.7 Per ML Blood
